Laboratory results published in ChEMBL document CHEMBL3045026, “Cytotoxic clerodane diterpenes from Glossocarya calcicola” (Phytochemistry, 2005).
Converted amounts (≈) assume the structure as drawn.

What was measured:
[1] = tested on: HepG2; test: Cytotoxicity against Homo sapiens (human) HepG2 cells; type: functional, cell-based
[2] = Cytotoxicity against Drosophila melanogaster D.mel-2 cells; type: functional, cell-based

## C=C1CC[C@@H](OC(=O)C(C)C)[C@H]2[C@@]1(C)[C@@H](O)C(=O)C(=C)[C@]2(C)C[C@@H](OC(=O)/C(C)=C/C)[C@]1(O)COC(=O)C1 (relative stereo)
[1]
  IC50: 2.06 µg/mL (≈ 3.87 µM)
[2]
  IC50: 9.04 µg/mL (≈ 17 µM)

## C=C1CC[C@@H](OC(=O)C(C)CC)[C@H]2[C@@]1(C)[C@@H](O)C(=O)C(=C)[C@]2(C)C[C@@H](OC(=O)/C(C)=C/C)[C@]1(O)COC(=O)C1 (relative stereo)
[1]
  IC50: 2.1 µg/mL (≈ 3.84 µM)
[2]
  IC50: 8.3 µg/mL (≈ 15.2 µM)
